Experimental data from publication PMC5834492, “Antimycobacterial drug discovery using Mycobacteria-infected amoebae identifies anti-infectives and new molecular targets” (Scientific Reports, 2018).

How the values were obtained:
M. marinum luxCDABE = assay type: cell-based, Mycobacterium marinum
[1] = test system: M. marinum in A. castellanii; assay type: cell-based, Mycobacterium marinum
[2] = test system: M. marinum in BV2 microglial cells; assay type: cell-based, Mycobacterium marinum
Mtb H37Rv in THP-1 = test system: Mtb H37Rv in THP-1; design: method as in Sorrentino et al, 2015; conditions: ref Sorrentino et al, 2015, cited from earlier work; for Intracelullar MIC90 in THP-1: THP1 / Mtb H37Rv infection assay; for Extracellular MIC90/ Inracellular MIC90: ratio
Mtb H37Rv = test system: Mtb H37Rv; design: method as in Sorrentino et al, 2015; conditions: ref Sorrentino et al, 2015; cited from earlier work
M. marinum GFP = assay type: cell-based, Mycobacterium marinum; conditions: 10 µM; antibiotic assay

SMILES | Antibiotic assays: M. marinum luxCDABE (M. marinum luxCDABE) | Intracellular infection assays: A. castellanii / M. marinum [1] | Intracellular infection assays: BV2 / M. marinum [2] | Growth inhibition / Cytotoxicity assays: D. discoideum GFP-ABD (D. discoideum GFP-ABD) | Growth inhibition / Cytotoxicity assays: BV2 cells (BV2 cells) | Intracelullar MIC90 in THP-1 (Mtb H37Rv in THP-1) | Extracellular MIC90/ Inracellular MIC90 (Mtb H37Rv in THP-1) | Extracellular MIC90 (Mtb H37Rv) | M. marinum luxCDABE normalised growth, control=1.00, mean (M. marinum luxCDABE; 10 µM) | M. marinum GFP normalised growth, control=1.00, mean (M. marinum GFP) | A. castellanii / M. marinum normalised growth, control=1.00, mean ([1]; 10 µM) | IC50 [2] | BV2 / M. marinum normalised growth, control=1.00, mean ([2]; 10 µM) | D. discoideum GFP-ABD normalised growth, control=1.00, mean (D. discoideum GFP-ABD; 10 µM)
Cc1cc(NCCc2ccccc2)nc(/N=C(\N)Nc2ccc(Cl)cc2)n1 [CCI7967] | 0.00 | 1.16 | 1.01 | 0.89 | False | 0.61 µM | 3.93 | 2.4 µM |  |  |  |  |  | 
N=C(N)c1ccc(CCN2CCC(c3nc(COCC(F)(F)F)c(-c4ccc(F)cc4)o3)CC2)cc1.O=C(O)C(F)(F)F.O=C(O)C(F)(F)F [GI247341A] | 0.00 | 1.18 | 1.21 | 0.77 | False |  |  |  |  |  |  |  |  | 
Cc1cc(OCC(=O)NCc2ccccc2)c2cc(Br)ccc2n1 [GSK124576A] | 0.00 | 1.13 | 1.05 | 0.91 | False | 5.55 µM | 0.41 | 2.3 µM |  |  |  |  |  | 
O=C(Nc1nnc(-c2ccc(Cl)cc2)o1)c1cccc(C(F)(F)F)c1 [GSK130506A] | 0.00 | 1.05 | 1.46 | 1.07 | False | 16.65 µM | 0.34 | 5.6 µM |  |  |  |  |  | 
Cc1cccc(-c2nc(Nc3ccncn3)c3sccc3n2)n1 [GSK153890A] | 0.00 | 1.21 | 1.17 | 1.05 | False |  |  |  |  |  |  |  |  | 
Cc1cccc(-c2nc(Nc3ccncn3)c3c(C)csc3n2)n1 [GSK163574A] | 0.00 | 1.13 | 1.25 | 0.81 | False | 50 µM | 0.01 | 0.3 µM |  |  |  |  |  | 
CC(C)(C)C(=O)CC1(O)Oc2ccccc2N=C1C=C(O)C(C)(C)C (stereo not shown) [GSK262906A] | 1.00 | 1.04 | 1.68 | 0.89 | False |  |  |  |  |  |  |  |  | 
COc1cc(Nc2ccccc2)ccc1NS(=O)(=O)c1c(C)noc1C [GSK270670A] | 1.00 | 1.11 | 1.42 | 0.94 | False | 50 µM | 0.12 | 6.1 µM |  |  |  |  |  | 
CN1CCN(c2cc(-c3ccc(F)cc3)nc(-c3ccncc3)n2)CC1 [GSK276001A] | 0.63 | 1.04 | 1.11 | 0.65 | False | 50 µM | 0.15 | 7.4 µM |  |  |  |  |  | 
O=C(Nc1nnc(-c2ccc(Cl)s2)o1)c1ccc(Cl)s1 [GSK316438A] | 0.09 | 1.32 | 1.30 | 0.70 | False | >50 µM |  |  |  |  |  |  |  | 
COc1ccc2nc(C)cc(OCC(=O)Nc3ccccc3OC)c2c1 [GSK358607A] | 0.00 | 0.55 | 0.98 | 0.39 | False | 1.85 µM | 0.22 | 0.4 µM |  |  |  |  |  | 
CCOc1ccc(OCc2ccc(C(=O)NNC(=O)c3ccc([N+](=O)[O-])o3)cc2)cc1 [GSK426032A] | 0.00 | 0.94 | 1.27 | 1.02 | False | >50 µM |  |  |  |  |  |  |  | 
COc1ccc2nc(C)cc(OCC(=O)NCc3ccccc3)c2c1 [GSK463114A] | 0.00 | 1.10 | 1.37 | 0.95 | False | 5.55 µM | 0.2 | 1.1 µM |  |  |  |  |  | 
c1ccc(Cc2nnc(Sc3ccnc(N4CCN(c5ccncc5)CC4)n3)n2CCN2CCOCC2)cc1 [GSK547511A] | 0.13 | 0.94 | 1.36 | 1.02 | False | >50 µM |  |  |  |  |  |  |  | 
c1ccc(-c2nnc(Sc3ccnc(N4CCN(c5ccncc5)CC4)n3)n2CCCN2CCOCC2)nc1 [GSK547543A] | 0.00 | 0.99 | 1.22 | 0.87 | False |  |  |  |  |  |  |  |  | 
CCC(Sc1nc2ccccc2o1)C(=O)Nc1nccs1 (stereo not shown) [GSK829969A] | 0.00 | 1.58 | 1.56 | 0.94 | True |  |  |  |  |  |  |  |  | 
CN(C)S(=O)(=O)c1ccc(C(=O)Nc2nnc(-c3ccc(Cl)s3)o2)cc1 [GSK991960A] | 0.15 | 1.06 | 1.20 | 0.90 | False |  |  |  |  |  |  |  |  | 
O=C(NC1=NCCS1)c1sc2cc(F)ccc2c1Cl [GSK1107112A] | 0.10 | 0.90 | 1.29 | 0.0367 | False |  |  |  |  |  |  |  |  | 
O=C(c1cnn(C(=O)c2ccco2)c1)c1cc(F)ccc1O [GSK1310678A] | 0.00 | 0.98 | 1.17 | 1.12 | False |  |  |  |  |  |  |  |  | 
NC(=O)c1cc(-c2ccsc2)ccc1OCCOc1ccccc1 [GSK1365028A] | 0.00 | 1.14 | 1.42 | 0.94 | False | >50 µM |  |  |  |  |  |  |  | 
O=C(Cc1ccc(F)cc1)Nc1nc(-c2ccccn2)cs1 [GSK1570606A] | 0.00 | 1.21 | 1.05 | 0.06 | False | >50 µM |  |  |  |  |  |  |  | 
CCc1c(C)nc(-n2nc(C)cc2NC(=O)c2ccccc2SC)[nH]c1=O [GSK1783710A] | 0.67 | 1.00 | 1.11 | 0.94 | False | >50 µM |  |  |  |  |  |  |  | 
O=C(OCc1c(F)cccc1Cl)c1ccc(-n2ncc(Cl)c(Cl)c2=O)cc1 [GSK1826825A] | 0.13 | 0.95 | 1.71 | 1.04 | False |  |  |  |  |  |  |  |  | 
O=C(CCCSc1ccccc1)NNC(=O)c1cccs1 [GSK2157753A] | 0.11 | 1.00 | 1.67 | 1.04 | False | >50 µM |  |  |  |  |  |  |  | 
CCc1ccc(S(=O)(=O)Nc2cc(CN3CCN(CCC(C)C)CC3)ccc2C)cc1.O=C(O)C(F)(F)F.O=C(O)C(F)(F)F [SB-811137-V] |  |  |  |  |  | 5.55 µM | 0.85 | 4.7 µM | 0.18 | 0.94 | 1.15 | 5.94 µM | 0.85 | 0.88
